Among the data in patent US7186831B2, “5-halo-2-alkyl[1,2,4]triazolo[1,5-a]pyrimidin-7-amines” (priority 2001, dated 2007) are logP and chromatographic logP values, retold here.

The structures appear in SMILES notation.

One data set can be described thus: log P by HPLC. In kind it is physicochemical. The settings on record: EEC directive 79/831 Annex V. A8 by HPLC (gradient method, acetonitrile/0.1% aqueous phosphoric acid).
Broadly, the logP is the decadic logarithm of the partition coefficient of the neutral form, usually between octanol and water. High values mean higher lipophilicity, low ones lower lipophilicity. On to `CCONc1c(-c2ccccc2F)c(Cl)nc2nc(C)nn12` [compound 362], for which the logP is reported as 2.28.
As to `CC(C)(C)CNc1c(-c2c(F)cc(F)cc2F)c(Cl)nc2nc(C3CC3)nn12` [compound 461], the logP came out at 4.19.
Regarding `Cc1nc2nc(Cl)c(-c3c(F)cccc3Cl)c(NCC(F)(F)F)n2n1` [compound 260], the log partition coefficient (logP) is on record as 2.77.
For the compound `CCN(CC1CCCO1)c1c(-c2c(F)cccc2F)c(Cl)nc2nc(C)nn12` (centres unmarked) [compound 341], the logP is recorded as 3.
With `C=C(C)CN(C)c1c(-c2c(F)cccc2F)c(Cl)nc2nc(C)nn12` [compound 337], the logP worked out at 3.3.
For `Cc1nc2nc(Cl)c(-c3ccc(F)cc3F)c(N3CCCCC3)n2n1` [compound 295], the logP was 3.32.
Still for that read-out and setting: to `Cc1nc2nc(Cl)c(-c3c(F)cccc3F)c(N3CCCC3C)n2n1` (centres unmarked) [compound 304] belongs 3.02.
Still for that read-out and setting: to `CCCCN(CC)c1c(-c2c(F)cccc2F)c(Cl)nc2nc(C)nn12` [compound 344] belongs 3.82; to `Cc1nc2nc(Cl)c(-c3c(F)cccc3F)c(N3CCCCC3C)n2n1` (centres unmarked) [compound 311], 3.57.
`Cc1nc2nc(Cl)c(-c3c(F)cccc3F)c(NCC(C)C)n2n1` [compound 328] registered a lipophilicity (logP) of 2.85.
The same measure, in the same setting: to `CC1CCN(c2c(-c3c(F)cc(F)cc3F)c(Cl)nc3nc(C4CC4)nn23)CC1` [compound 473] belongs 4.66.
On to `Cc1nc2nc(Cl)c(-c3c(F)cccc3F)c(NOCc3cccc(C(F)(F)F)c3)n2n1` [compound 433], for which the logP is recorded as 3.41.
`Cc1nc2nc(Cl)c(-c3c(F)cccc3F)c(N3CCc4ccccc4C3)n2n1` [compound 327] came in with a log partition coefficient (logP) of 3.22.
Still for that read-out and setting: to `CCCN(CC1CCCO1)c1c(-c2ccc(F)cc2F)c(Cl)nc2nc(C)nn12` (centres unmarked) [compound 357] belongs 3.6; to `C=CCN(C)c1c(-c2c(F)cccc2F)c(Cl)nc2nc(C)nn12` [compound 333], 2.95; to `Cc1nc2nc(Cl)c(-c3c(F)cccc3Cl)c(N3CC=CCC3)n2n1` [compound 265], 3.33.
Regarding `Cc1nc2nc(Cl)c(-c3c(F)cccc3F)c(NCC#N)n2n1` [compound 420], the lipophilicity (logP) is listed as 1.91.
Still for that read-out and setting: to `CCOC(=O)CN(CC)c1c(-c2c(F)cccc2F)c(Cl)nc2nc(C)nn12` [compound 343] belongs 2.85; to `CCOC(=O)CN(CC)c1c(-c2c(F)cccc2Cl)c(Cl)nc2nc(C)nn12` [compound 270], 3.14.
Still for that read-out and setting: to `Cc1nc2nc(Cl)c(-c3ccccc3Cl)c(N3CCC(F)CC3)n2n1` [compound 402] belongs 3.05; to `CC(C)Nc1c(-c2ccc(F)cc2Cl)c(Cl)nc2nc(C3CC3)nn12` [compound 503], 3.5; to `CC(C)CN(C)c1c(-c2ccccc2Cl)c(Cl)nc2nc(C3CC3)nn12` [compound 497], 4.41.
Still for that read-out and setting: to `Cc1nc2nc(Cl)c(-c3ccccc3F)c(NOCc3cc(Cl)cc(Cl)c3)n2n1` [compound 364] belongs 3.76; to `COCCN(C)c1c(-c2c(F)cccc2F)c(Cl)nc2nc(C)nn12` [compound 336], 2.45.
Turning to `CCN(CCOC)c1c(-c2c(F)cccc2F)c(Cl)nc2nc(C)nn12` [compound 342], the logP is listed as 2.74.
For the compound `CCC1=CCN(c2c(-c3ccc(F)cc3F)c(Cl)nc3nc(C4CC4)nn23)CC1` [compound 511], the lipophilicity (logP) came to 4.59.
In turn, `Cc1nc2nc(Cl)c(-c3c(F)cccc3F)c(N3CCC(N)C3)n2n1` (centres unmarked) [compound 441] gave a logP of 1.19.
With `CONc1c(-c2c(F)cccc2F)c(Cl)nc2nc(C)nn12` [compound 436], the logP was 2.07.

Still in this data set, the particulars now being: HPLC.
A word on the chromatographic logP: it is a lipophilicity value derived from retention on a column. With `Fc1cc(F)c(-c2c(Cl)nc3nc(C(F)(F)F)nn3c2Cl)c(F)c1` [Example 819, 5,7-dichloro-2-(trifluoromethyl)-6-(2,4,6-trifluorophenyl)[1,2,4]triazolo[1,5-a]pyrimidine], the chromatographic logP worked out at 3.71.

The data set is the same for the next values; noted with them: HPLC, gradient method, acetonitrile/0.1% aqueous phosphoric acid; EEC directive 79/831 Annex V. A8.
Turning to `CCN(CC)c1c(-c2ccc(F)cc2Cl)c(Cl)nc2nc(C3CC3)nn12` [compound 632], the logP was 4.13.
Still for that read-out and setting: to `CC1CCN(c2c(-c3c(F)cccc3Cl)c(Cl)nc3nc(C4CC4)nn23)CC1` [compound 706] belongs 4.59; to `Cc1nc2nc(Cl)c(-c3c(F)cccc3F)c(NCCC(F)(F)F)n2n1` [compound 184], 2.63.
Still for that read-out and setting: to `Cc1nc2nc(Cl)c(-c3ccc(F)cc3Cl)c(N3CCCCO3)n2n1` [compound 589] belongs 3.23; to `C=C(C)CN(C)c1c(-c2c(F)cc(F)cc2F)c(Cl)nc2nc(C)nn12` [compound 155], 3.55; to `CCCNc1c(-c2c(F)cccc2F)c(Cl)nc2nc(C)nn12` [compound 172], 2.52.
Same read-out and setting: under `CCN(CCN(C)C)c1c(-c2ccc(F)cc2F)c(Cl)nc2nc(C(F)(F)F)nn12` [compound 547] stands 1.91; under `Fc1ccc(-c2c(Cl)nc3nc(C4CC4)nn3c2N2CCCCO2)c(Cl)c1` [compound 785], 3.87; under `CC1CCCN1c1c(-c2ccc(F)cc2F)c(Cl)nc2nc(C3CC3)nn12` (centres unmarked) [compound 604], 3.76.
In the case of `CC(C)(C)CNc1c(-c2ccc(F)cc2Cl)c(Cl)nc2nc(C3CC3)nn12` [compound 622], the logP is given as 4.37.
The same measure, in the same setting: to `Cc1nc2nc(Cl)c(-c3c(F)cccc3F)c(NC3CCCC3)n2n1` [compound 173] belongs 2.97.
With `Cc1nc2nc(Cl)c(-c3c(F)cccc3F)c(N3CCSCC3)n2n1` [compound 179], the lipophilicity (logP) was 2.84.
Consider `CC(C)CN(N)c1c(-c2c(F)cc(F)cc2F)c(Cl)nc2nc(C3CC3)nn12` [compound 773], for which the logP turned out to be 3.65.
As for `Cc1nc2nc(Cl)c(-c3c(F)cc(F)cc3F)c(NCC(C)(C)C)n2n1` [compound 146], the logP is given as 3.5.
`Fc1cccc(F)c1-c1c(Cl)nc2nc(C3CC3)nn2c1NCC(F)F` [compound 763] gave a logP of 2.72.
In turn, `C=C(C)CNc1c(-c2c(F)cc(F)cc2F)c(Cl)nc2nc(CC)nn12` [compound 21] registered a logP of 3.15.
The compound `Cc1nc2nc(Cl)c(-c3c(F)cc(F)cc3F)c(NC(C)CO)n2n1` (centres unmarked) [compound 122] had a logP of 1.93.
In turn, `Cc1nc2nc(Cl)c(-c3ccccc3Cl)c(NC3CC3)n2n1` [compound 215] returned a logP of 2.54.
Still for that read-out and setting: to `Fc1ccc(-c2c(Cl)nc3nc(C4CC4)nn3c2NC2CCCCC2C(F)(F)F)c(F)c1` (centres unmarked) [compound 715] belongs 4.08.
The compound `Fc1cccc(F)c1-c1c(Cl)nc2nc(C3CC3)nn2c1N1CCCC1` [compound 679] displayed a logP of 3.25.
Same read-out and setting: to `COC(=O)CN(C)c1c(-c2c(F)cccc2F)c(Cl)nc2nc(C)nn12` [compound 565] belongs 2.32.
For `Cc1nc2nc(Cl)c(-c3c(F)cc(F)cc3F)c(NC(C)C(F)(F)F)n2n1` (centres unmarked) [compound 113], the logP is listed as 3.03.
On the same count and under the same terms, to `Cc1nc2nc(Cl)c(-c3c(F)cc(F)cc3F)c(NCC(C)C)n2n1` [compound 145] belongs 3.14.
On the same count and under the same terms, under `CCCCNc1c(-c2ccc(F)cc2F)c(Cl)nc2nc(C)nn12` [compound 192] stands 3.04; under `COC(=O)CNc1c(-c2c(F)cc(F)cc2F)c(Cl)nc2nc(C)nn12` [compound 125], 2.13; under `CN(C)Nc1c(-c2ccc(F)cc2Cl)c(Cl)nc2nc(C3CC3)nn12` [compound 619], 3.29.
The compound `CC1CCCN1c1c(-c2c(F)cccc2Cl)c(Cl)nc2nc(C3CC3)nn12` (centres unmarked) [compound 702] displayed a logP of 3.94.
`CCCN(Cc1cccs1)c1c(-c2ccc(F)cc2F)c(Cl)nc2nc(C3CC3)nn12` [compound 601] yielded a logP of 4.64.
With `CN(CCC#N)c1c(-c2ccc(F)cc2F)c(Cl)nc2nc(C(F)(F)F)nn12` [compound 542], the lipophilicity (logP) is reported as 3.19.
On the same count and under the same terms, under `CCN(CC)c1c(-c2ccc(F)cc2F)c(Cl)nc2nc(C3CC3)nn12` [compound 597] stands 3.73.
`C=C(C)CN(C)c1c(-c2c(F)cccc2F)c(Cl)nc2nc(C3CC3)nn12` [compound 677] had a lipophilicity (logP) of 3.98.
`C=CCN(C)c1c(-c2c(F)cc(F)cc2F)c(Cl)nc2nc(C)nn12` [compound 152]: the log partition coefficient (logP) amounted to 3.18.
Same read-out and setting: to `Fc1cc(F)c(-c2c(Cl)nc3nc(C(F)(F)F)nn3c2N2CCCCC2C(F)(F)F)c(F)c1` (centres unmarked) [compound 109] belongs 4.76.
As for `Cc1nc2nc(Cl)c(-c3ccc(F)cc3Cl)c(N[C@@H](C)C(F)(F)F)n2n1` (single isomer, unassigned) [compound 642], the log partition coefficient (logP) was found to be 3.17.
On the same count and under the same terms, under `CC(C)CN(N)c1c(-c2ccc(Cl)cc2Cl)c(Cl)nc2nc(C3CC3)nn12` [compound 750] stands 4.36; under `CC1CCCCN1c1c(-c2ccc(F)cc2Cl)c(Cl)nc2nc(C3CC3)nn12` (centres unmarked) [compound 617], 4.72; under `Cc1nc2nc(Cl)c(-c3c(F)cccc3F)c(NOC(C)(C)C)n2n1` [compound 141], 2.68.
Compound `FC(F)(F)CNc1c(-c2ccc(Cl)cc2Cl)c(Cl)nc2nc(C3CC3)nn12` [compound 742] yielded a lipophilicity (logP) of 3.72.
On the same count and under the same terms, to `CC(C)Nc1c(-c2c(F)cc(F)cc2F)c(Cl)nc2nc(C(F)(F)F)nn12` [compound 11] belongs 3.8.
Consider `Fc1cccc(F)c1-c1c(Cl)nc2nc(C3CC3)nn2c1N1OC2CCC1C2` (centres unmarked) [compound 743], for which the lipophilicity (logP) is 3.23.
Consider `Cc1nc2nc(Cl)c(-c3c(F)cc(F)cc3F)c(NCCC(F)(F)F)n2n1` [compound 70], for which the log partition coefficient (logP) amounted to 2.85.
The same measure, in the same setting: under `CCC(C)Nc1c(-c2ccc(F)cc2Cl)c(Cl)nc2nc(C3CC3)nn12` (centres unmarked) [compound 623] stands 3.9; under `Cc1nc2nc(Cl)c(-c3c(F)cc(F)cc3F)c(N3Cc4ccccc4CO3)n2n1` [compound 168], 3.73.
Same read-out and setting: to `CCN(CCC#N)c1c(-c2ccc(F)cc2F)c(Cl)nc2nc(C(F)(F)F)nn12` [compound 550] belongs 3.46.
`CC(Nc1c(-c2c(F)cccc2F)c(Cl)nc2nc(C3CC3)nn12)C(F)(F)F` (centres unmarked) [compound 764] registered a logP of 3.98.
